Measurements as given in PMC6270601, “Dimeric Labdane Diterpenes: Synthesis and Antiproliferative Effects” (Molecules, 2013).

Tests used:
[1] = test system: MRC-5 normal fibroblasts; test: Antiproliferative assay (MTT reduction), MRC-5 normal lung fibroblasts; format: cell-based, human; conditions: for IC50: Homo sapiens, MRC5, 72 h, MRC-5 normal fibroblasts, 3 days treatment, MTT reduction, mean ± SD, >100 µM considered inactive; for antiproliferative activity against MRC-5 (in words): up to 100 µM
Description: (§1) All human cell lines used in this work were purchased from the American Type Culture Collection (ATCC, Manasas, VA, USA). […] Promyelocytic leukemia HL-60 cells (CCL-240) were grown in suspension in RPM1 medium containing 1 mM sodium pyruvate and 2.0 g/L sodium bicarbonate. All media were supplemented with 10% heat-inactivated FBS, 100 IU/mL penicillin and 100 µg/mL streptomycin. Cells were grown in a humidified incubator with 5% CO2 in air at 37 °C. For the antiproliferative assay, adherent cells were plated at a density of 5 × 10^4 cells/mL and HL-60 cells at 30 × 10^4 cells/mL. Cells were seeded in 96-well plates (100 µL/well). One day after seeding, cells were treated with medium containing the compounds at concentrations ranging from 0 up to 100 µM during 3 days. The compounds were dissolved in DMSO (1% final concentration) and complete medium. Untreated cells (medium containing 1% DMSO) were used as 100% viability controls. […] Each concentration was tested in sextuplicate and experiments were repeated 2 times. Cell viability was determined by means of the MTT reduction assay at the end of the incubation with the products.

[2] = test system: AGS cells; test: Antiproliferative assay (MTT reduction), AGS gastric adenocarcinoma cells; format: cell-based, human; conditions: for IC50: Homo sapiens, 72 h, AGS gastric adenocarcinoma, 3 days treatment, MTT reduction, mean ± SD, >100 µM considered inactive; for antiproliferative activity against AGS (in words): up to 100 µM
Description: (§2) The compounds 1–20 were assessed for antiproliferative effect towards human lung fibroblasts (MRC-5) and the following human tumor cell lines: gastric adenocarcinoma (AGS), lung cancer cells (SK-MES-1), bladder carcinoma (J82) and promyelocytic leukemia (HL-60).
(§3) All human cell lines used in this work were purchased from the American Type Culture Collection (ATCC, Manasas, VA, USA). Normal lung MRC-5 fibroblasts (CCL-171), SK-MES-1 lung cancer cells (HTB-58) and J82 bladder carcinoma cells (HTB-1) were grown as monolayers in minimum essential Eagle medium (MEM) with Earles’s salts, 2 mM L-glutamine and 1.5 g/L sodium bicarbonate. Gastric adenocarcinoma AGS cells (CRL-1739) were grown as monolayers in Ham F-12 medium containing 1 mM L-glutamine and 1.5 g/L sodium bicarbonate. Promyelocytic leukemia HL-60 cells (CCL-240) were grown in suspension in RPM1 medium containing 1 mM sodium pyruvate and 2.0 g/L sodium bicarbonate. All media were supplemented with 10% heat-inactivated FBS, 100 IU/mL penicillin and 100 µg/mL streptomycin. Cells were grown in a humidified incubator with 5% CO2 in air at 37 °C. For the antiproliferative assay, adherent cells were plated at a density of 5 × 10^4 cells/mL and HL-60 cells at 30 × 10^4 cells/mL. Cells were seeded in 96-well plates (100 µL/well). One day after seeding, cells were treated with medium containing the compounds at concentrations ranging from 0 up to 100 µM during 3 days. The compounds were dissolved in DMSO (1% final concentration) and complete medium. Untreated cells (medium containing 1% DMSO) were used as 100% viability controls. […] Each concentration was tested in sextuplicate and experiments were repeated 2 times. Cell viability was determined by means of the MTT reduction assay at the end of the incubation with the products. The results were transformed to percentage of controls and the IC50 values were graphically obtained from the dose-response curves.

[3] = test system: SK-MES-1 lung cancer cells; test: Antiproliferative assay (MTT reduction), SK-MES-1 lung cancer cells; format: cell-based, human; conditions: for IC50: Homo sapiens, 72 h, SK-MES-1 lung cancer cells, 3 days treatment, MTT reduction, mean ± SD, >100 µM considered inactive; for antiproliferative activity against SK-MES-1 (in words): up to 100 µM
Description: as §1

[4] = test system: J82 bladder carcinoma cells; test: Antiproliferative assay (MTT reduction), J82 bladder carcinoma cells; format: cell-based, human; conditions: for IC50: Homo sapiens, 72 h, J82 bladder carcinoma, 3 days treatment, MTT reduction, mean ± SD, >100 µM considered inactive; for antiproliferative activity against J82 (in words): up to 100 µM
Description: as §1

[5] = test system: HL-60 cells; test: Antiproliferative assay (MTT reduction), HL-60 promyelocytic leukemia cells; format: cell-based, human; conditions: for IC50: Homo sapiens, 72 h, HL-60 promyelocytic leukemia, 3 days treatment, MTT reduction, mean ± SD, >100 µM considered inactive; for antiproliferative activity against HL-60 (in words): up to 100 µM
Description: as §1

[6] = test system: MRC-5, AGS, SK-MES-1, J82 and HL-60 cell lines; test: Antiproliferative assay, panel of five human cell lines (summary in words); format: cell-based; conditions: SK-MES-1, J82, HL-60, up to 100 µM
Description: as §2, §3

Structure (SMILES) | IC50 [1] [µM] | IC50 [2] [µM] | IC50 [3] [µM] | IC50 [4] [µM] | IC50 [5] [µM] | antiproliferative activity against MRC-5 (in words) [1] | antiproliferative activity against AGS (in words) [2] | antiproliferative activity against SK-MES-1 (in words) [3] | antiproliferative activity against J82 (in words) [4] | antiproliferative activity against HL-60 (in words) [5] | antiproliferative effect on the five cell lines (in words) [6]
C=C1CCC2[C@](C)(CCC[C@]2(C)C(=O)OC)[C@H]1CC[C@@H](C)CCOCCCCCOCC[C@H](C)CC[C@H]1C(=C)CCC2[C@]1(C)CCC[C@]2(C)C(=O)OC (some centres unmarked) [Compound 9] | 68.1 ± 3.4 | 17.8 ± 1.3 | 67.5 ± 6.9 | > 100 | 32.6 ± 2.3 |  |  |  |  |  | 
C=C1CCC2[C@](C)(CCC[C@]2(C)C(=O)O)[C@H]1CC[C@@H](C)CC(=O)OCCc1cn(CC[C@H](C)CC[C@H]2C(=C)CCC3[C@]2(C)CCC[C@]3(C)C(=O)OC)nn1 (some centres unmarked) [Compound 17] | 79.6 ± 5.1 | 23.4 ± 1.4 | 67.5 ± 4.9 | 34.6 ± 2.5 | 23.2 ± 3.1 |  |  |  |  |  | 
C=C1CCC2[C@](C)(CCC[C@]2(C)C(=O)OC)[C@H]1CC[C@@H](C)CCn1cc(CCO)nn1 (some centres unmarked) [Compound 5, 15-(4-(2-Hydroxyethyl)-1H-1,2,3-triazol-1-yl)-imbricatolic acid methyl ester] | 75.8 ± 5.3 | 54.8 ± 3.3 | 57.2 ± 3.4 | 56.2 ± 3.9 | 48.9 ± 4.5 |  |  |  |  |  | 
C=C1CCC2[C@](C)(CCC[C@]2(C)C(=O)O)[C@H]1CC[C@@H](C)CC(=O)OCc1cn(CC[C@H](C)CC[C@H]2C(=C)CCC3[C@]2(C)CCC[C@]3(C)C(=O)OC)nn1 (some centres unmarked) [Compound 15] | > 100 | 39.4 ± 2.4 | 56 ± 4.5 | 84.7 ± 6.8 | 44.1 ± 4.1 |  |  |  |  |  | 
C=C1CCC2[C@](C)(CCC[C@]2(C)C(=O)OC)[C@H]1CC[C@@H](C)CCOC(=O)C[C@H](C)CC[C@H]1C(=C)CCC2[C@]1(C)CCC[C@]2(C)C(=O)OC (some centres unmarked) [Compound 12] | > 100 | > 100 | 38.5 ± 2.8 | 61.4 ± 3.1 | > 100 | devoid of activity | devoid of activity | showed effect | showed effect | devoid of activity | 
C=C1CCC2[C@](C)(CCC[C@]2(C)C(=O)OC)[C@H]1CC[C@@H](C)CCN=[N+]=[N-] (some centres unmarked) [Compound 3, 15-Azidoimbricatolic acid methyl ester] | 91.8 ± 6.4 | 73.8 ± 5.2 | 67.6 ± 3.4 | > 100 | 22.3 ± 3.1 |  |  |  |  |  | 
C=C1CCC2[C@](C)(CCC[C@]2(C)C(=O)OC)[C@H]1CC[C@@H](C)CCn1cc(COC(=O)C[C@H](C)CC[C@H]2C(=C)CCC3[C@]2(C)CCC[C@]3(C)C(=O)OC)nn1 (some centres unmarked) [Compound 16] | > 100 | > 100 | > 100 | > 100 | > 100 |  |  |  |  |  | 
C=C1CCC2[C@](C)(CCC[C@]2(C)C(=O)OC)[C@H]1CC[C@@H](C)CCOCC[C@H](C)CC[C@H]1C(=C)CCC2[C@]1(C)CCC[C@]2(C)C(=O)OC (some centres unmarked) [Compound 7] | > 100 | > 100 | > 100 | > 100 | > 100 |  |  |  |  |  | no antiproliferative effect
C=C1CCC2[C@](C)(CCC[C@]2(C)C(=O)O)[C@H]1CC[C@@H](C)CC(=O)O (some centres unmarked) [Compound 2, Labd-8(17)-en-15,19-dioic acid] | > 100 | > 100 | > 100 | > 100 | > 100 |  |  |  |  |  | no antiproliferative effect on any of the cell lines
C=C1CCC2[C@](C)(CCC[C@]2(C)C(=O)OC)[C@H]1CC[C@@H](C)CCn1cc(CO)nn1 (some centres unmarked) [Compound 4, 15-(4-(Hydroxymethyl)-1H-1,2,3-triazol-1-yl)-imbricatolic acid methyl ester] | 77.4 ± 3.9 | 41.5 ± 2.1 | 67.7 ± 3.1 | 60.7 ± 4.6 | > 100 |  |  |  |  |  | 
COc1cc([C@@H]2c3cc4c(cc3[C@@H](O[C@@H]3O[C@@H]5CO[C@@H](C)O[C@H]5[C@H](O)[C@H]3O)[C@H]3COC(=O)[C@H]23)OCO4)cc(OC)c1O [Etoposide, reference compound] |  | 0.58 ± 0.02 |  |  |  |  |  |  |  |  | 
C=C1CCC2[C@](C)(CCC[C@]2(C)C(=O)OC)[C@H]1CC[C@@H](C)CCOC(=O)c1ccccc1C(=O)OCC[C@H](C)CC[C@H]1C(=C)CCC2[C@]1(C)CCC[C@]2(C)C(=O)OC (some centres unmarked) [Compound 14] | 76.3 ± 5.8 | 51.7 ± 2.8 | > 100 | > 100 | 55.6 ± 3.9 |  |  |  |  |  | 
C=C1CCC2[C@](C)(CCC[C@]2(C)C(=O)OC)[C@H]1CC[C@@H](C)CCOC(=O)CCC(=O)OCC[C@H](C)CC[C@H]1C(=C)CCC2[C@]1(C)CCC[C@]2(C)C(=O)OC (some centres unmarked) [Compound 13] | 76.8 ± 5.4 | 62.9 ± 3.9 | 68.2 ± 4.5 | 72.1 ± 4.3 | 60.8 ± 4.2 |  |  |  |  |  | 
C=C1CCC2[C@](C)(CCC[C@]2(C)C(=O)OC)[C@H]1CC[C@@H](C)CCn1cc(CCOC(=O)C[C@H](C)CC[C@H]2C(=C)CCC3[C@]2(C)CCC[C@]3(C)C(=O)OC)nn1 (some centres unmarked) [Compound 18] | > 100 | > 100 | > 100 | > 100 | > 100 |  |  |  |  |  | 
C=C1CCC2[C@](C)(CCC[C@]2(C)C(=O)O)[C@H]1CC[C@@H](C)CC(=O)OCC[C@H](C)CC[C@H]1C(=C)CCC2[C@]1(C)CCC[C@]2(C)C(=O)OC (some centres unmarked) [Compound 11] | 71.2 ± 5.3 | 26.1 ± 2.2 | > 100 | > 100 | 80.3 ± 5.9 | showed activity | showed activity | not against SK-MES-1 and J82 cells | not against SK-MES-1 and J82 cells | showed activity | 
C=C1CCC2[C@](C)(CCC[C@]2(C)C(=O)OC)[C@H]1CC[C@@H](C)CCO (some centres unmarked) [Compound 1, 15-Hydroxyimbricatolic acid methyl ester] | 77.7 ± 4 | 38.5 ± 1.6 | 59.7 ± 2.4 | 63.7 ± 2.6 | 47.5 ± 3.9 |  |  |  |  |  | 
C=C1CCC2[C@](C)(CCC[C@]2(C)C(=O)OC)[C@H]1CC[C@@H](C)CCOCCCCOCC[C@H](C)CC[C@H]1C(=C)CCC2[C@]1(C)CCC[C@]2(C)C(=O)OC (some centres unmarked) [Compound 8] | > 100 | 70.3 ± 6.3 | > 100 | > 100 | 57.8 ± 4.1 |  |  |  |  |  | 
C=C1CCC2[C@](C)(CCC[C@]2(C)C(=O)OC)[C@H]1CC[C@@H](C)CCOCCCCCCCCCOCC[C@H](C)CC[C@H]1C(=C)CCC2[C@]1(C)CCC[C@]2(C)C(=O)OC (some centres unmarked) [Compound 10] | > 100 | > 100 | 67.9 ± 5.4 | > 100 | > 100 |  |  |  |  |  | 
C=C1CCC2[C@](C)(CCC[C@]2(C)C(=O)OC)[C@H]1CC[C@@H](C)CCn1cc(CCC(=O)OCC[C@H](C)CC[C@H]2C(=C)CCC3[C@]2(C)CCC[C@]3(C)C(=O)OC)nn1 (some centres unmarked) [Compound 20] | > 100 | > 100 | > 100 | > 100 | > 100 |  |  |  |  |  | no antiproliferative effect on any of the cell lines
